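Values below derive from 48-hour exposures of cells grown in 96-well plates, with endpoints linearly interpolated between the two concentrations bracketing the appropriate inhibition level. GI50 is the concentration that inhibits growth by half.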 Activity calls are given as the source filed them. Rule as the data show it: active = GI50 up to about 1.1 µM and inactive = higher.
Key:
Experiment in all cases: DTP human tumour cell line panel, 48 h
[1] = system: RPMI-8226
[2] = system: SR
[3] = system: HCC 2998
[4] = system: IGROV-1
[5] = system: COLO 205
[6] = system: LOX IMVI
[7] = system: EKVX
[8] = system: KM12
[9] = system: CCRF-CEM
[10] = system: MOLT-4
[11] = system: T47D
[12] = system: Malme-3M
[13] = system: NCI-H460
[14] = system: SNB-19
[15] = system: NCI-H522
[16] = system: OVCAR-4
[17] = system: SK-MEL-5
[18] = system: 786-0
[19] = system: MDA-N

Measured: GI50

CC(=O)OC1C2CCC1C1C2N=NN1c1ccc([N+](=O)[O-])cc1 (stereo not drawn)
inactive: [1] > 100 µM | [2] 15.7 µM | [3] > 100 µM | [4] > 100 µM | [5] > 100 µM | [6] > 100 µM | [7] > 100 µM | [8] > 100 µM | [9] > 100 µM | [10] > 100 µM | [11] > 100 µM | [12] > 100 µM | [13] > 100 µM | [14] > 100 µM | [15] 64.4 µM | [16] > 100 µM | [17] > 100 µM | [18] > 100 µM

CCC1(c2ccc(N3C(=O)c4cccc5cc([N+](=O)[O-])cc(c45)C3=O)cc2)CCC(=O)NC1=O (stereo not drawn)
inactive: [1] 11.6 µM | [3] 30.7 µM | [4] 5.4 µM | [5] 9.57 µM | [6] 11.9 µM | [7] 11.7 µM | [8] > 100 µM | [9] 7.74 µM | [10] 11.9 µM | [11] 24.4 µM | [12] 20.1 µM | [13] 6.35 µM | [14] 35 µM | [15] 1.81 µM | [16] 12.6 µM | [17] 90.4 µM | [18] 7.38 µM

CCCCCCCCCC1C(C)c2c([nH]c3ccccc23)C2C(=O)N(c3ccccc3)C(=O)C21 (stereo not drawn)
inactive: [1] 3.83 µM | [3] 12.9 µM | [4] 18.8 µM | [7] 54 µM | [8] 4.79 µM | [9] 3.1 µM | [10] 2.54 µM | [12] 41.9 µM | [13] 4.18 µM | [16] 5.9 µM | [17] 17 µM | [18] 12.4 µM

CS(=O)(=O)OCCN1CCC2(CC1)SSC1(CCN(CCOS(C)(=O)=O)CC1)S2
inactive: [1] 8.87 µM | [2] 14.1 µM | [4] 50.8 µM | [5] 28.7 µM | [6] 19.8 µM | [8] > 100 µM | [10] 31.8 µM | [12] 22.8 µM | [13] 34.8 µM | [14] 69.3 µM | [19] 75.5 µM | [16] 62.1 µM | [17] 16.1 µM | [18] 56.9 µM

CC1=C(C(=O)c2ccccc2)C23C(=O)N(c4ccccc4)C(=O)C2=C(O)C=CC3(O)N1 (stereo not drawn)
inactive: [1] 29.8 µM | [2] 15.4 µM | [3] 26.7 µM | [4] 25.6 µM | [5] 50.8 µM | [6] 19.8 µM | [7] 76.6 µM | [8] 23.9 µM | [9] 35.1 µM | [11] 37.2 µM | [12] 25.2 µM | [13] 40.8 µM | [14] 37.9 µM | [15] 12.7 µM | [16] 17.8 µM | [17] 17.6 µM | [18] 35 µM

CC(=O)O[C@@H]1[C@@H](O)C2=C3[C@]4(C)[C@@H]1C(C)(C)C(=O)C[C@@H]4[C@]3(O)[C@H](OC(C)=O)[C@@]1(C[C@@H]1C)C2=O
inactive: [1] 6.7 µM | [3] 15.4 µM | [4] 15.4 µM | [5] 18.4 µM | [6] 14.8 µM | [7] 19.2 µM | [8] 16.6 µM | [9] 7.82 µM | [10] 26.6 µM | [11] 16.3 µM | [12] 13.5 µM | [13] 15.5 µM | [14] 21 µM | [15] 5.18 µM | [16] 19.5 µM | [17] 19.8 µM | [18] 15.6 µM

Cc1ccc(-c2c(C#N)c(-c3ccc([N+](=O)[O-])cc3)c(C#N)c(=O)n2NS(=O)(=O)c2ccc(C)cc2)cc1
inactive: [1] 18.9 µM | [3] 29.4 µM | [4] 24.7 µM | [5] 80.4 µM | [6] 33.4 µM | [7] 47.5 µM | [8] 30.2 µM | [9] 25.9 µM | [10] 19.8 µM | [12] 96.4 µM | [13] 39.8 µM | [14] 56.6 µM | [19] 75.9 µM | [15] 31.8 µM | [16] 41.5 µM | [17] 19.8 µM | [18] 65 µM

COC(=O)[C@](NC(=O)OCc1ccccc1)([C@@H](C)[S+]([O-])c1ccc(C)cc1)C(F)(F)F (stereo partly drawn)
inactive: [1] 26.5 µM | [2] 22.9 µM | [3] 32.6 µM | [4] 24.6 µM | [5] 25.8 µM | [6] 33.7 µM | [7] 29.2 µM | [8] 29.3 µM | [9] 22.8 µM | [10] 18.7 µM | [11] 35.8 µM | [12] 33 µM | [13] 29 µM | [14] 43 µM | [15] 24.6 µM | [16] 20.8 µM | [17] 16.4 µM | [18] 52.2 µM

Oc1ccc(/C=N/c2nccs2)c(O)c1
inactive: [3] 30.2 µM | [4] > 100 µM | [5] 33.3 µM | [6] > 100 µM | [7] > 100 µM | [8] 16 µM | [12] > 100 µM | [13] > 100 µM | [14] > 100 µM | [19] > 100 µM | [15] > 100 µM | [17] > 100 µM | [18] > 100 µM

— ChEMBL document CHEMBL1201862, “PubChem BioAssay data set” (2004)
